Measured values as given in publication PMC10141580, “Cyclic Dichalcogenides Extend the Reach of Bioreductive Prodrugs to Harness Thiol/Disulfide Oxidoreductases: Applications to seco-Duocarmycins Targeting the Thioredoxin System” (ACS Central Science, 2023).
Like-named read-outs stand apart in the source and are kept apart here.

Test system: NCI-60 standardized human tumor cell line panel
Assay: cells
Assay type: cell-based
Details: for NCI-60 screening: Log(RedIndex): log10 reductive index vs P-CC60; for GI50: Homo sapiens

COc1cc2cc(C(=O)N3C[C@@H](CCl)c4c3cc(OC(=O)N3CCN(C(=O)CCC(=O)N5CCN(C)CC5)[C@H]5CSSC[C@H]53)c3ccccc43)[nH]c2c(OC)c1OC [P-SS66C-CBI-TMI]
reductive activation index ratio NCI-60/ProliFiler, mean (19 overlapping cell lines): 1.8 fold
NCI-60 screening: Log(RedIndex) (786-0 (RE) cell line): 1.22
NCI-60 screening: Log(RedIndex) (A498 (RE) cell line): 1.1
NCI-60 screening: Log(RedIndex) (ACHN (RE) cell line): 1.07
NCI-60 screening: Log(RedIndex) (CAKI-1 (RE) cell line): 0.94
NCI-60 screening: Log(RedIndex) (DU-145 (PR) cell line): 1.27
GI50 (786-0, 786-0 (RE) cell line, log10 of GI50 in M, read-out: NCI-60 screening: Log(GI50) (converted)): 105 nM
GI50 (786-0, 786-0 (RE) cell line, read-out: NCI-60 screening: Raw GI50): 110 nM
GI50 (786-0, 786-0, read-out: GI50): 110 nM
GI50 (A498, A498 (RE) cell line, log10 of GI50 in M, read-out: NCI-60 screening: Log(GI50) (converted)): 219 nM
GI50 (A498, A498, read-out: GI50): 220 nM
GI50 (A549, A549/ATCC, read-out: GI50): 90 nM
GI50 (A549, cell line A549/ATCC (LC:A549/ATCC), TMI sheet, read-out: NCI-60 screening: Log(GI50) (converted)): 89.1 nM
GI50 (ACHN, ACHN (RE) cell line, log10 of GI50 in M, read-out: NCI-60 screening: Log(GI50) (converted)): 42.7 nM
GI50 (ACHN, read-out: GI50): 42 nM
GI50 (BT-549, BT-549, read-out: GI50): 140 nM
GI50 (BT-549, cell line BT-549 (BR:BT-549), TMI sheet, read-out: NCI-60 screening: Log(GI50) (converted)): 145 nM
GI50 (BT-549, cell line BT-549 (BR:BT-549), TMI sheet, read-out: NCI-60 screening: Raw GI50): 140 nM
GI50 (CAKI-1, CAKI-1 (RE) cell line, log10 of GI50 in M, read-out: NCI-60 screening: Log(GI50) (converted)): 174 nM
GI50 (CAKI-1, Caki-1, read-out: GI50): 170 nM
GI50 (CCRF-CEM, cell line CCRF-CEM (LE:CCRF-CEM), TMI sheet, read-out: NCI-60 screening: Log(GI50) (converted)): 269 nM
GI50 (CCRF-CEM, cell line CCRF-CEM (LE:CCRF-CEM), TMI sheet, read-out: NCI-60 screening: Raw GI50): 270 nM
GI50 (CCRF-CEM, read-out: GI50): 270 nM
GI50 (COLO 205, Colo 205, read-out: GI50): 140 nM
GI50 (COLO 205, cell line COLO 205 (CO:COLO 205), TMI sheet, read-out: NCI-60 screening: Log(GI50) (converted)): 145 nM
GI50 (COLO 205, cell line COLO 205 (CO:COLO 205), TMI sheet, read-out: NCI-60 screening: Raw GI50): 140 nM
GI50 (DU-145, DU-145 (PR) cell line, log10 of GI50 in M, read-out: NCI-60 screening: Log(GI50) (converted)): 24.5 nM
GI50 (DU-145, DU-145, read-out: GI50): 25 nM
GI50 (EKVX, cell line EKVX (LC:EKVX), TMI sheet, read-out: NCI-60 screening: Log(GI50) (converted)): 209 nM
GI50 (EKVX, read-out: GI50): 210 nM
GI50 (HCC 2998, HCC-2998, read-out: GI50): 54 nM
GI50 (HCC 2998, cell line HCC-2998 (CO:HCC-2998), TMI sheet, read-out: NCI-60 screening: Log(GI50) (converted)): 53.7 nM
GI50 (HCT-15, HCT-15, read-out: GI50): 240 nM
GI50 (HCT-15, cell line HCT-15 (CO:HCT-15), TMI sheet, read-out: NCI-60 screening: Log(GI50) (converted)): 245 nM
GI50 (HCT-15, cell line HCT-15 (CO:HCT-15), TMI sheet, read-out: NCI-60 screening: Raw GI50): 240 nM
GI50 (HCT-116, HCT-116, read-out: GI50): 150 nM
GI50 (HCT-116, cell line HCT-116 (CO:HCT-116), TMI sheet, read-out: NCI-60 screening: Log(GI50) (converted)): 155 nM
GI50 (HCT-116, cell line HCT-116 (CO:HCT-116), TMI sheet, read-out: NCI-60 screening: Raw GI50): 150 nM
GI50 (HL-60, HL-60(TB), read-out: GI50): 48 nM
GI50 (HL-60, cell line HL-60(TB) (LE:HL-60(TB)), TMI sheet, read-out: NCI-60 screening: Log(GI50) (converted)): 47.9 nM
GI50 (HOP-62, HOP-62, read-out: GI50): 41 nM
GI50 (HOP-62, cell line HOP-62 (LC:HOP-62), TMI sheet, read-out: NCI-60 screening: Log(GI50) (converted)): 41.7 nM
GI50 (HOP-92, HOP-92, read-out: GI50): 180 nM
GI50 (HOP-92, cell line HOP-92 (LC:HOP-92), TMI sheet, read-out: NCI-60 screening: Log(GI50) (converted)): 178 nM
GI50 (HT-29, HT29, read-out: GI50): 140 nM
GI50 (HT-29, cell line HT29 (CO:HT29), TMI sheet, read-out: NCI-60 screening: Log(GI50) (converted)): 141 nM
GI50 (HT-29, cell line HT29 (CO:HT29), TMI sheet, read-out: NCI-60 screening: Raw GI50): 140 nM
GI50 (Hs-578T, read-out: GI50): 290 nM
GI50 (Hs-578T, read-out: NCI-60 screening: Log(GI50) (converted)): 295 nM
GI50 (IGROV-1, IGROV1 (OV) cell line, log10 of GI50 in M, read-out: NCI-60 screening: Log(GI50) (converted)): 200 nM
GI50 (IGROV-1, IGROV1, read-out: GI50): 200 nM
GI50 (K562, K-562, read-out: GI50): 89 nM
GI50 (K562, cell line K-562 (LE:K-562), TMI sheet, read-out: NCI-60 screening: Log(GI50) (converted)): 89.1 nM
GI50 (KM12, KM12, read-out: GI50): 130 nM
GI50 (KM12, cell line KM12 (CO:KM12), TMI sheet, read-out: NCI-60 screening: Log(GI50) (converted)): 132 nM
GI50 (KM12, cell line KM12 (CO:KM12), TMI sheet, read-out: NCI-60 screening: Raw GI50): 130 nM
GI50 (LOX IMVI, cell line LOX IMVI (ME:LOX IMVI), TMI sheet, read-out: NCI-60 screening: Log(GI50) (converted)): 69.2 nM
GI50 (LOX IMVI, read-out: GI50): 69 nM
GI50 (M14, M14, read-out: GI50): 120 nM
GI50 (MCF7, MCF7, read-out: GI50): 15 nM
GI50 (MCF7, cell line MCF7 (BR:MCF7), TMI sheet, read-out: NCI-60 screening: Log(GI50) (converted)): 14.8 nM
GI50 (MDA-MB-435, MDA-MB-435, read-out: GI50): 150 nM
GI50 (MDA-MB-435, cell line MDA-MB-435 (ME:MDA-MB-435), TMI sheet, read-out: NCI-60 screening: Log(GI50) (converted)): 148 nM
GI50 (MDA-MB-435, cell line MDA-MB-435 (ME:MDA-MB-435), TMI sheet, read-out: NCI-60 screening: Raw GI50): 150 nM
GI50 (MDA-MB-468, MDA-MB-468, read-out: GI50): 37 nM
GI50 (MOLT-4, MOLT-4, read-out: GI50): 63 nM
GI50 (MOLT-4, cell line MOLT-4 (LE:MOLT-4), TMI sheet, read-out: NCI-60 screening: Log(GI50) (converted)): 63.1 nM
GI50 (Malme-3M, cell line MALME-3M (ME:MALME-3M), TMI sheet, read-out: NCI-60 screening: Log(GI50) (converted)): 135 nM
GI50 (Malme-3M, cell line MALME-3M (ME:MALME-3M), TMI sheet, read-out: NCI-60 screening: Raw GI50): 130 nM
GI50 (Malme-3M, read-out: GI50): 130 nM
GI50 (NCI-H23, NCI-H23, read-out: GI50): 19 nM
GI50 (NCI-H23, cell line NCI-H23 (LC:NCI-H23), TMI sheet, read-out: NCI-60 screening: Log(GI50) (converted)): 18.6 nM
GI50 (NCI-H23, cell line NCI-H23 (LC:NCI-H23), TMI sheet, read-out: NCI-60 screening: Raw GI50): 19 nM
GI50 (NCI-H226, NCI-H226, read-out: GI50): 240 nM
GI50 (NCI-H226, cell line NCI-H226 (LC:NCI-H226), TMI sheet, read-out: NCI-60 screening: Log(GI50) (converted)): 245 nM
GI50 (NCI-H226, cell line NCI-H226 (LC:NCI-H226), TMI sheet, read-out: NCI-60 screening: Raw GI50): 240 nM
GI50 (NCI-H322M, read-out: GI50): 50 nM
GI50 (NCI-H322M, read-out: NCI-60 screening: Log(GI50) (converted)): 50.1 nM
GI50 (NCI-H460, NCI-H460 (LC) cell line, log10 of GI50 in M, read-out: NCI-60 screening: Log(GI50) (converted)): 22.4 nM
GI50 (NCI-H460, NCI-H460, read-out: GI50): 22 nM
GI50 (NCI-H522, NCI-H522 (LC) cell line, log10 of GI50 in M, read-out: NCI-60 screening: Log(GI50) (converted)): 55 nM
GI50 (NCI-H522, NCI-H522, read-out: GI50): 56 nM
GI50 (OVCAR-3, OVCAR-3 (OV) cell line, log10 of GI50 in M, read-out: NCI-60 screening: Log(GI50) (converted)): 145 nM
GI50 (OVCAR-3, OVCAR-3 (OV) cell line, read-out: NCI-60 screening: Raw GI50): 140 nM
GI50 (OVCAR-3, OVCAR-3, read-out: GI50): 140 nM
GI50 (OVCAR-4, OVCAR-4 (OV) cell line, log10 of GI50 in M, read-out: NCI-60 screening: Log(GI50) (converted)): 195 nM
GI50 (OVCAR-4, OVCAR-4, read-out: GI50): 190 nM
GI50 (OVCAR-5, OVCAR-5 (OV) cell line, log10 of GI50 in M, read-out: NCI-60 screening: Log(GI50) (converted)): 257 nM
GI50 (OVCAR-5, OVCAR-5, read-out: GI50): 250 nM
GI50 (OVCAR-8, OVCAR-8 (OV) cell line, log10 of GI50 in M, read-out: NCI-60 screening: Log(GI50) (converted)): 91.2 nM
GI50 (OVCAR-8, OVCAR-8, read-out: GI50): 92 nM
GI50 (PC-3 (PR) cell line, log10 of GI50 in M, read-out: NCI-60 screening: Log(GI50) (converted)): 479 nM
